Assay results published in ChEMBL document CHEMBL1201862, “PubChem BioAssay data set” (2004).
Structures can show the parent of a compound that is named as a salt.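 Grown in 96-well plates, cells were treated for 48 hours with each compound at five concentrations. Insufficient inhibition: endpoint recorded as highest concentration tested. GI50 is the concentration that inhibits growth by half.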 Activity calls are given as the source filed them. Rule as the data show it: active = GI50 up to about 1.1 µM and inactive = higher.

Columns and labels:
Assay in all cases: NCI anticancer screen, dose series, 48 h
A498 = test system: A498
HCT-15 = test system: HCT-15
HOP-62 = test system: HOP-62
HT-29 = test system: HT-29
M14 = test system: M14
NCI-H23 = test system: NCI-H23
NCI-H460 = test system: NCI-H460
NCI-H522 = test system: NCI-H522
OVCAR-4 = test system: OVCAR-4
OVCAR-8 = test system: OVCAR-8
PC-3 = test system: PC-3
RPMI-8226 = test system: RPMI-8226
SF-295 = test system: SF-295
SK-MEL-2 = test system: SK-MEL-2
SN12C = test system: SN12C
SNB-19 = test system: SNB-19
T47D = test system: T47D
U-251 = test system: U-251
DLD-1 = test system: DLD-1

SMILES: Cc1ccc2nc(/C=N/c3ccccc3Cl)cc(C)c2c1
- GI50 (A498): > 100 µM (inactive)
- GI50 (HCT-15): 18.4 µM
- GI50 (HOP-62): 38.8 µM (inactive)
- GI50 (HT-29): 18.4 µM (inactive)
- GI50 (M14): 13.2 µM (inactive)
- GI50 (NCI-H23): 22.2 µM (inactive)
- GI50 (NCI-H460): 17.2 µM (inactive)
- GI50 (NCI-H522): 20 µM (inactive)
- GI50 (OVCAR-4): 34 µM (inactive)
- GI50 (OVCAR-8): 15.2 µM (inactive)
- GI50 (PC-3): 25.4 µM (inactive)
- GI50 (RPMI-8226): 8.75 µM (inactive)
- GI50 (SF-295): 21.9 µM (inactive)
- GI50 (SK-MEL-2): 40.2 µM (inactive)
- GI50 (SN12C): 12.2 µM (inactive)
- GI50 (SNB-19): 30.2 µM (inactive)
- GI50 (T47D): 22.4 µM (inactive)
- GI50 (U-251): 20.7 µM (inactive)

SMILES: CC(=O)OCC1OC(OCCCOP(=O)(OCCC#N)OCC2OC(n3cnc4c(N)ncnc43)C(OC(=O)c3ccccc3)C2OC(=O)c2ccccc2)C(OC(C)=O)C(OC(C)=O)C1OC(C)=O (stereo not drawn)
- GI50 (A498): > 100 µM (inactive)
- GI50 (HCT-15): > 100 µM
- GI50 (HOP-62): > 100 µM (inactive)
- GI50 (HT-29): > 100 µM (inactive)
- GI50 (M14): > 100 µM (inactive)
- GI50 (NCI-H23): > 100 µM (inactive)
- GI50 (NCI-H460): > 100 µM (inactive)
- GI50 (NCI-H522): 16.3 µM (inactive)
- GI50 (OVCAR-4): > 100 µM (inactive)
- GI50 (OVCAR-8): > 100 µM (inactive)
- GI50 (PC-3): > 100 µM (inactive)
- GI50 (RPMI-8226): > 64.1 µM (inactive)
- GI50 (SF-295): > 100 µM (inactive)
- GI50 (SK-MEL-2): > 100 µM (inactive)
- GI50 (SN12C): > 100 µM (inactive)
- GI50 (SNB-19): > 100 µM (inactive)
- GI50 (T47D): > 100 µM (inactive)
- GI50 (U-251): > 100 µM (inactive)

SMILES: CC(C)C(=S)N(C)O
- GI50 (A498): 19.1 µM (inactive)
- GI50 (DLD-1): 2.73 µM (inactive)
- GI50 (HCT-15): 24.2 µM
- GI50 (HOP-62): 24.5 µM (inactive)
- GI50 (HT-29): 1.46 µM (inactive)
- GI50 (M14): 21.6 µM (inactive)
- GI50 (NCI-H23): 29.8 µM (inactive)
- GI50 (NCI-H460): 5.69 µM (inactive)
- GI50 (NCI-H522): 6.08 µM (inactive)
- GI50 (OVCAR-4): 9.89 µM (inactive)
- GI50 (OVCAR-8): 13.9 µM (inactive)
- GI50 (RPMI-8226): 0.518 µM (active)
- GI50 (SF-295): 16.8 µM (inactive)
- GI50 (SK-MEL-2): 24.5 µM (inactive)
- GI50 (SN12C): 26.6 µM (inactive)
- GI50 (SNB-19): > 29.2 µM (inactive)
- GI50 (U-251): 28.4 µM (inactive)

SMILES: COc1ccc(/C=N/NC(=O)C2=C(N)N(c3ccccc3)C(=C(C#N)C#N)S2)cc1
- GI50 (A498): 22.6 µM (inactive)
- GI50 (DLD-1): > 100 µM (inactive)
- GI50 (HCT-15): > 100 µM
- GI50 (HOP-62): 53.8 µM (inactive)
- GI50 (HT-29): > 100 µM (inactive)
- GI50 (M14): > 100 µM (inactive)
- GI50 (NCI-H23): > 100 µM (inactive)
- GI50 (NCI-H460): > 100 µM (inactive)
- GI50 (NCI-H522): > 100 µM (inactive)
- GI50 (OVCAR-4): > 100 µM (inactive)
- GI50 (OVCAR-8): 93.8 µM (inactive)
- GI50 (PC-3): > 100 µM (inactive)
- GI50 (RPMI-8226): > 100 µM (inactive)
- GI50 (SF-295): 45 µM (inactive)
- GI50 (SN12C): > 100 µM (inactive)
- GI50 (SNB-19): 70 µM (inactive)
- GI50 (U-251): 63.8 µM (inactive)

SMILES: CCOP(=O)(OCC)OC1c2[nH]cc(C(=O)OCc3ccccc3)c2-c2cc(C(=O)OC)[nH]c2C1OC (stereo not drawn)
- GI50 (A498): 10.6 µM (inactive)
- GI50 (HCT-15): 3.25 µM
- GI50 (HOP-62): 7.76 µM (inactive)
- GI50 (HT-29): 3.24 µM (inactive)
- GI50 (M14): 9.08 µM (inactive)
- GI50 (NCI-H23): 13.4 µM (inactive)
- GI50 (NCI-H460): 4.55 µM (inactive)
- GI50 (NCI-H522): 6.53 µM (inactive)
- GI50 (OVCAR-4): 6.15 µM (inactive)
- GI50 (OVCAR-8): 12.8 µM (inactive)
- GI50 (PC-3): 4.94 µM (inactive)
- GI50 (RPMI-8226): 5.62 µM (inactive)
- GI50 (SF-295): 5 µM (inactive)
- GI50 (SK-MEL-2): 9.4 µM (inactive)
- GI50 (SN12C): 16.4 µM (inactive)
- GI50 (SNB-19): 14.7 µM (inactive)
- GI50 (T47D): 7.91 µM (inactive)
- GI50 (U-251): 11.4 µM (inactive)

SMILES: C[C@H](NC1=CC(=O)C(N[C@@H](C)[C@H](O)c2ccccc2)=CC1=O)[C@H](O)c1ccccc1
- GI50 (A498): > 100 µM (inactive)
- GI50 (HCT-15): 68.9 µM
- GI50 (HOP-62): > 100 µM (inactive)
- GI50 (HT-29): 27.3 µM (inactive)
- GI50 (M14): > 100 µM (inactive)
- GI50 (NCI-H23): 67 µM (inactive)
- GI50 (NCI-H460): 63.8 µM (inactive)
- GI50 (NCI-H522): 61.8 µM (inactive)
- GI50 (OVCAR-4): > 100 µM (inactive)
- GI50 (OVCAR-8): > 100 µM (inactive)
- GI50 (PC-3): 43.1 µM (inactive)
- GI50 (RPMI-8226): > 100 µM (inactive)
- GI50 (SF-295): 70.1 µM (inactive)
- GI50 (SK-MEL-2): > 100 µM (inactive)
- GI50 (SN12C): > 100 µM (inactive)
- GI50 (SNB-19): > 100 µM (inactive)
- GI50 (T47D): 53.1 µM (inactive)
- GI50 (U-251): > 100 µM (inactive)

SMILES: CCOC(=O)c1cc(C2CCN(c3ccccc3)C2=O)c(C(=O)/C=C(/C)O)[nH]1 (stereo not drawn)
- GI50 (A498): > 100 µM (inactive)
- GI50 (HCT-15): 51.6 µM
- GI50 (HOP-62): > 100 µM (inactive)
- GI50 (HT-29): > 100 µM (inactive)
- GI50 (M14): > 100 µM (inactive)
- GI50 (NCI-H23): 55.6 µM (inactive)
- GI50 (NCI-H460): > 100 µM (inactive)
- GI50 (NCI-H522): 67.5 µM (inactive)
- GI50 (OVCAR-4): 63.8 µM (inactive)
- GI50 (OVCAR-8): > 100 µM (inactive)
- GI50 (PC-3): 88.3 µM (inactive)
- GI50 (RPMI-8226): 48.9 µM (inactive)
- GI50 (SF-295): 70.8 µM (inactive)
- GI50 (SK-MEL-2): > 100 µM (inactive)
- GI50 (SN12C): > 100 µM (inactive)
- GI50 (SNB-19): > 100 µM (inactive)
- GI50 (T47D): 36.6 µM (inactive)
- GI50 (U-251): > 100 µM (inactive)

SMILES: Cc1cc2c(=O)cc(-c3ccc(Cl)cc3Cl)oc2c(C(=O)O)c1C
- GI50 (DLD-1): > 100 µM (inactive)
- GI50 (HCT-15): > 100 µM
- GI50 (HT-29): > 100 µM (inactive)
- GI50 (M14): > 100 µM (inactive)
- GI50 (NCI-H23): > 100 µM (inactive)
- GI50 (NCI-H460): > 100 µM (inactive)
- GI50 (NCI-H522): 25.3 µM (inactive)
- GI50 (OVCAR-4): > 100 µM (inactive)
- GI50 (OVCAR-8): > 100 µM (inactive)
- GI50 (RPMI-8226): > 100 µM (inactive)
- GI50 (SF-295): > 100 µM (inactive)
- GI50 (SK-MEL-2): > 100 µM (inactive)
- GI50 (SN12C): > 100 µM (inactive)
- GI50 (SNB-19): > 100 µM (inactive)
- GI50 (U-251): > 100 µM (inactive)

SMILES: CCc1nc(N)nc(N)c1-c1ccc(NC)c([N+](=O)[O-])c1
- GI50 (A498): 2.43 µM (inactive)
- GI50 (HCT-15): 0.398 µM
- GI50 (HOP-62): 1.79 µM (inactive)
- GI50 (HT-29): 0.44 µM (active)
- GI50 (M14): 0.959 µM (active)
- GI50 (NCI-H23): 0.944 µM (active)
- GI50 (NCI-H460): 0.15 µM (active)
- GI50 (NCI-H522): 1.88 µM (inactive)
- GI50 (OVCAR-4): 15.5 µM (inactive)
- GI50 (OVCAR-8): 0.662 µM (active)
- GI50 (PC-3): 0.804 µM (active)
- GI50 (RPMI-8226): 3.72 µM (inactive)
- GI50 (SF-295): 0.753 µM (active)
- GI50 (SK-MEL-2): 21.2 µM (inactive)
- GI50 (SN12C): 0.91 µM (active)
- GI50 (SNB-19): 9.08 µM (inactive)
- GI50 (T47D): 21.4 µM (inactive)
- GI50 (U-251): 0.631 µM (active)

SMILES: NC(=O)NC1NC(=O)NC1=O (stereo not drawn) [ALLANTOIN]
- GI50 (A498): > 100 µM (inactive)
- GI50 (HCT-15): > 100 µM
- GI50 (HOP-62): > 100 µM (inactive)
- GI50 (HT-29): > 100 µM (inactive)
- GI50 (M14): > 100 µM (inactive)
- GI50 (NCI-H23): > 100 µM (inactive)
- GI50 (NCI-H460): > 100 µM (inactive)
- GI50 (NCI-H522): > 100 µM (inactive)
- GI50 (OVCAR-4): > 100 µM (inactive)
- GI50 (OVCAR-8): > 100 µM (inactive)
- GI50 (PC-3): > 100 µM (inactive)
- GI50 (RPMI-8226): > 100 µM (inactive)
- GI50 (SF-295): > 100 µM (inactive)
- GI50 (SK-MEL-2): > 100 µM (inactive)
- GI50 (SN12C): > 100 µM (inactive)
- GI50 (SNB-19): > 100 µM (inactive)
- GI50 (T47D): > 100 µM (inactive)
- GI50 (U-251): > 100 µM (inactive)

SMILES: CN1CCC(CN2c3ccccc3Sc3ccccc32)C1 (stereo not drawn) [METHDILAZINE HYDROCHLORIDE]
- GI50 (A498): 13.1 µM (inactive)
- GI50 (HCT-15): 16.2 µM
- GI50 (HOP-62): 15 µM (inactive)
- GI50 (HT-29): 10.9 µM (inactive)
- GI50 (M14): 10.5 µM (inactive)
- GI50 (NCI-H23): 20.3 µM (inactive)
- GI50 (NCI-H460): 13.9 µM (inactive)
- GI50 (NCI-H522): 16.7 µM (inactive)
- GI50 (OVCAR-4): 13.9 µM (inactive)
- GI50 (OVCAR-8): 16.5 µM (inactive)
- GI50 (PC-3): 12.4 µM (inactive)
- GI50 (RPMI-8226): 15.1 µM (inactive)
- GI50 (SF-295): 16.1 µM (inactive)
- GI50 (SK-MEL-2): 15.7 µM (inactive)
- GI50 (SN12C): 15.3 µM (inactive)
- GI50 (SNB-19): 17.9 µM (inactive)
- GI50 (T47D): 15.8 µM (inactive)
- GI50 (U-251): 13.7 µM (inactive)
